In brackets after ≈: the same amount, converted by molar mass.
Experiments:
[1] = Observation on standing (note in characterisation); format: physicochemical; details: HRMS consistent with free alcohol
Procedure: To a round bottomed flask containing DMAP (2 mg) was added a solution of 2-(4-hydroxymethyl)phenyl-1-(piperidin-1-yl)hexanone (30 mg, 0.10 mmol) in dry dichloromethane (2 mL). To the resulting mixture was added dry NEt3 (208 μL, 1.5 mmol) followed by acetic anhydride (100 μL, 1.0 mmol). The resulting mixture was allowed to stir for 3 hours. After this time, the reaction mixture was washed with saturated NaHCO3, water and then brine and the organic phase was dried (Na2SO4) and concentrated under reduced pressure. The title compound was obtained as a colourless oil (20 mg, 60%) following purification by flash column chromatography (50% EtOAc in hexane, Rf=0.7). ^1H NMR (400 MHz, CDCl3) δ 0.86 (t, J=7 Hz, 3H); 1.0-1.2 (2×m, 2H); 1.2-1.5 (multiple signals, 8H); 1.68 (m, 1H); 4.53 (m+s, 4H); 3.33 (m, 1H), 3.39 (m, 1H); 3.49 (m, 1H); 3.60 (m, 1H); 3.70 (t, J=7 Hz, 1H); 5.07 (s, 2H); 7.72 (m, 4H). ^13C NMR (75 MHz, CDCl3) δ14.01, 21.08, 22.72, 24.57, 25.60, 26.20, 30.09, 34.77, 43.20, 46.66, 48.38, 66.07, 128.03, 128.58, 134.24, 141.02, 171.09, 171.17.
To a round bottomed flask containing DMAP (2 mg) was added a solution of 2-(4-hydroxymethyl)phenyl-1-(piperidin-1-yl)hexanone (30 mg, 0.10 mmol) in dry CH2Cl2 (2 mL). To the resulting mixture was added dry NEt3 ([…], 1.5 mmol) followed by acetic anhydride (100 μL, 1.0 mmol). The resulting mixture was allowed to stir for 3 hours. […]

[2] = test system: stage II naupliar larvae of the barnacle Amphibalanus amphitrite; experiment: Toxicity assay with barnacle nauplii; format: in vivo; details: Amphibalanus amphitrite (barnacle), stage II naupliar larvae, in vivo
Procedure: (§1) Biological assays were conducted with larval barnacles. Barnacles are dominant and tenacious members of marine fouling communities, and often serve as a substrate for less resistant organisms. Therefore, historically they have been used as a model organism for antifouling studies. To determine the biological response of larvae to test compounds, two bioassays were performed: settlement (using settlement stage cyprids), and toxicity (using nauplii). Procedures followed methods standard in the field, which were first described by Rittschof et al. (1992).
(§2) Stock solutions of each compound were made at 50 mg/ml. Pure compounds were diluted in DMSO and sonicated. Stock solutions were stored at −20° C. in 4 ml amber screw cap vials until use. For bioassays, a small amount of stock solution was diluted in 1 μm filtered seawater (in a glass scintillation vial). The solution was then sonicated for 10 minutes. To obtain the desired concentration range, serial dilutions of the test solution were made. As control, a serial dilution of the equivalent amounts of DMSO in seawater was used.
Toxicity assays employed stage II naupliar larvae of the barnacle Amphibalanus amphitrite (previously Balanus amphitrite: Pitombo, 2004). Assay procedures were modified from Rittschof et al. (1992). Adult A. amphitrite were collected from inter-tidal areas near the Kranji mangrove, Singapore. Larval culture was based on Rittschof et al. (1984). Following collection, nauplii were concentrated for use in bioassays by placing a fiber optic light source at one side of the container, and pipetting from the resulting dense cloud of nauplii.
In order to determine LD50 values for each compound, compounds were tested over a range of concentrations between 0-50 μg/ml. For each assay, each compound at each concentration was tested in triplicate with a single batch of nauplii. The overall assay was conducted twice, using two different batches of nauplii. Two controls were run along with each assay (in triplicate): filtered seawater only, and DMSO at […] (since DMSO was used as a solvent for test compounds, this concentration is equivalent to the concentration of DMSO in the highest test compound concentration).
For assays, approximately 20 nauplii (in 50 μl filtered seawater) were added to 1 ml test solution or control, in a 2 ml glass vial (La Pha Pack® PN 11-14-0544). Assays were run for 22-24 hours at 25-27° C. After this time, living and dead nauplii were counted using a Bogorov tray. Nauplii that were approaching death were scored as dead. Data for all assays was combined and LD50 was calculated (where possible) using a probit analysis (Libermann, 1983). If LD50 could not be calculated using probit analysis, values were extrapolated based on plotted data.

[3] = test system: barnacle cyprids; experiment: Settlement assay with barnacle cyprids; format: in vivo, Amphibalanus amphitrite
Procedure: as §1, with “nauplii).” for “nauplii). Procedures followed methods standard in the field, which were first described by Rittschof et al. (1992).”
as §2
Nauplii were cultured as described above, and then reared at 25° C. on an algal mixture of 1:1 v/v of Tetraselmis suecica and Chaetoceros muelleri (approximately density 5×10^5 cells per ml). Under these conditions, nauplii typically metamorphose to cyprids in 5 days. Cyprids were aged at 4° C. for 2 days.
Settlement assays were conducted in 7 ml neutral glass vials (Samco® T103/V1; 34×23 mm diameter). For assays, each solution was made at twice the desired final concentration; 0.5 ml of this solution was transferred to vials. To each vial, cyprids were added by transferring 0.5 ml filtered seawater containing 20-40 aged cyprids. As in toxicity assays: each compound at each concentration was run in triplicate with cyprids from a single batch; two controls (filtered seawater and DMSO) were run along with each assays; and the overall assay was conducted twice, using two different batches of cyprids.
Assays were conducted for 24 hours, after which time the number of settled cyprids, the number of free swimming (unsettled) cyprids, and the number of dead cyprids were counted for each vial. Both metamorphosed, juvenile barnacles and cyprids that had committed to settlement (glued themselves to the vial), but had not yet metamorphosed, were counted as ‘settled’. Data was expressed as percent settlement. […] If ED50 could not be calculated using probit analysis, values were extrapolated based on plotted data.

CCCCC(C(=O)N1CCCCC1)c1ccc(COC(C)=O)cc1 (stereo not shown) [Compound 16.3, 2-(4-acetoxymethyl)phenyl-1-(piperidin-1-yl)hexanone]
stability on standing [1]: hydrolyses on standing
LD50 [2]: >50 µg/mL
IC50 ([3]; Amphibalanus amphitrite, 24 h, anti-settlement, barnacle cyprids, 24 hours, concentration causing 50% reduction in settlement vs controls, read-out: ED50 (the source's name)): 6.35 µg/mL (≈ 19.2 µM)
TR (LD50/ED50) ([3]; therapeutic ratio, LD50 (nauplii) / ED50 (cyprids)): >7.87

Source: patent US9169223B2, “Functionalised antifouling compounds and use thereof” (Agency for Science, Technology and Research, priority 2010, dated 2015)
